Data on two compounds can be found in patent US4822809A, “Benzazole lipoxygenase inhibiting compounds” (Abbott Laboratories, priority 1987, dated 1989).

This experiment addresses T1, 5-lipoxygenase (Rattus norvegicus, UniProt P12527).
T1 construct: 20,000×g supernatant from 6×10^4 homogenized RBL-1 cells; endogenous in cells; host or cells: RBL-1 cells (20,000×g supernatant of homogenate)
T1 sequence (P12527 1-673): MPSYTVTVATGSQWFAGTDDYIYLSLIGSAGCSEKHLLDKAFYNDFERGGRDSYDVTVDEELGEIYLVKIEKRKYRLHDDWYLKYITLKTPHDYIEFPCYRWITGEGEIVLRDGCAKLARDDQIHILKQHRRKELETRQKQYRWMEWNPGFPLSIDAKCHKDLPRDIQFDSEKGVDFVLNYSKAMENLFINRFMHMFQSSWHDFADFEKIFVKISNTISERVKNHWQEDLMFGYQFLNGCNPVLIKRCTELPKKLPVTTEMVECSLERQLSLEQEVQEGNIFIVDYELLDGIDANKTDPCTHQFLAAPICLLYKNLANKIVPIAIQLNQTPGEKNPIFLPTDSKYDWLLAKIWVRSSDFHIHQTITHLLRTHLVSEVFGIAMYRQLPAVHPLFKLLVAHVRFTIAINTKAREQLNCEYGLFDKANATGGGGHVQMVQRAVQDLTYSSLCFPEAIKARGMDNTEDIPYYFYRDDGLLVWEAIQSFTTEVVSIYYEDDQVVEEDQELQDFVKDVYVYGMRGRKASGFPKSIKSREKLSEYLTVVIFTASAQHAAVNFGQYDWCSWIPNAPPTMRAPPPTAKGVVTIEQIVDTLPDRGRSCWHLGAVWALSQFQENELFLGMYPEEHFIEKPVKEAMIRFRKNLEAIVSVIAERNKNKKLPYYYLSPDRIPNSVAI
Put plainly: 5-lipoxygenase inhibition, 20,000×g supernatant of homogenized RBL-1 cells, radiolabelled arachidonic acid. The format is biochemical. The conditions noted are these: In vitro 5-lipoxygenase inhibitory potency; RBL-1 cell 20,000×g supernatant, 2% DMSO. As for the experimental part:
Assays to determine 5-lipoxygenase activity were performed in 200 μL incubations containing the 20,000×g supernatant from 6×10^4 homogenized RBL-1 cells, 2% DMSO vehicle and various concentrations of the test compound. Reactions were initiated by addition of radiolabelled arachidonic acid and terminated by acidification and ether extraction. Reaction products were separated from nonconverted substrate by thin layer chromatography and measured by liquid scintillation spectroscopy. All treatments were evaluated in triplicate incubations. Inhibition of 5-lipoxygenase activity was computed by comparison of the quantity of products formed in the treatment incubations to the mean product formation in vehicle control groups (n=8). IC50 values and 95% confidence limits were computed by linear regression analysis of percentage inhibition versus log inhibitor concentration plots. The results of the assay indicate that the compounds are inhibitors of 5-lipoxygenase.

Molecules are shown by their SMILES.

With `CNC(=O)N(O)Cc1nc2ccccc2n1C` [Example 1, N-hydroxy-N-(1-methyl-benzo[b]imidazol-2-ylmethyl)N'-methylurea], half-maximal inhibition (IC50) was put at 85 µM. In other words, the double-digit micromolar range.

As to `CC(c1nc2ccccc2s1)N(O)C(N)=O` (centres unmarked) [Example 2, N-hydroxy-N-(1-benzo[b]thiazol-2-ylethyl)urea], half-maximal inhibition (IC50) required 1.9 µM.
